Assays:
human PD-L1 = human PD-L1 (Homo sapiens (Human), UniProt Q9NZQ7); assay: T cell activation luciferase reporter cell culture system (T Cell Activation Assay); assay type: cell-based; conditions: luciferase reporter assay; PD-L1 aAPC/CHO-K1 cells with PD-1 effector Jurkat T cells
[1] = target: PD-L1 His protein / PD-1 Fc protein (Homo sapiens (Human), UniProt Q9NZQ7); assay: HTRF Assay (PD-1/PD-L1 interaction); assay type: binding; conditions: PD-L1 His 6 nM, PD-1 Fc 6 nM
Chain of PD-L1 His protein / PD-1 Fc protein (Q9NZQ7 19-238): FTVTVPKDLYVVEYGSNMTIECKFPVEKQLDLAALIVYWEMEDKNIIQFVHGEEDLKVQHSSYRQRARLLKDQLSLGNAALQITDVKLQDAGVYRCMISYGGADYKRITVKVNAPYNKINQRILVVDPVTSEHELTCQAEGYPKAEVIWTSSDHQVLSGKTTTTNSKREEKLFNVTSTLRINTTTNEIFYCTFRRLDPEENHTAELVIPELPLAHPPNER

Chain of human PD-L1 (Q9NZQ7 19-290): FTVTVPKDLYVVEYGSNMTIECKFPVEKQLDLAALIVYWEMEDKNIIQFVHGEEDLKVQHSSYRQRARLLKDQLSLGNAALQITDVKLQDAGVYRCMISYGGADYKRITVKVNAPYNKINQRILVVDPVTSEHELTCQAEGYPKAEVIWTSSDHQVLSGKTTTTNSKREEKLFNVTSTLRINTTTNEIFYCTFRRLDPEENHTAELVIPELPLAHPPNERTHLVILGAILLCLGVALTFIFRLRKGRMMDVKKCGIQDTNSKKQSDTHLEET

| Structure (SMILES) | EC50 (human PD-L1) [nM] | IC50 [1] [nM] |
| --- | --- | --- |
| COc1cc(-c2nccc(-c3cccc(-c4ccc5c(CNC6CCN(C(C)=O)CC6)cn(C)c5n4)c3Cl)c2Cl)ccc1CN1CC2(CNC(=O)C2)C1 [Compound 579, 2-(4-(4-(3-(3-(((1-Acetylpiperidin-4-yl)amino)methyl)-1-methyl-1H-pyrrolo[2,3-b]pyridin-6-yl)-2-chlorophenyl)-3-chloropyridin-2-yl)-2-methoxybenzyl)-2,6-diazaspiro[3.4]octan-7-one] | 101 | 0.3 |
| COc1cc(-c2nccc(-c3cccc(-c4ccc5c(CN(C)C6CCN(C(C)=O)CC6)cn(C)c5n4)c3Cl)c2Cl)ccc1CNC1CCOCC1 [Compound 600, 1-(4-(((6-(2-Chloro-3-(3-chloro-2-(3-methoxy-4-(((tetrahydro-2H-pyran-4-yl)amino)methyl)phenyl)pyridin-4-yl)phenyl)-1-methyl-1H-pyrrolo[2,3-b]pyridin-3-yl)methyl)(methyl)amino)piperidin-1-yl)ethan-1-one] | 32.6 | 0.25 |
| COc1cc(-c2nccc(-c3cccc(-c4ccc5c(CN(C)C6CCN(C(C)=O)CC6)cn(C)c5n4)c3Cl)c2Cl)ccc1CN1CC2(C1)CN(C(C)=O)C2 [Compound 601, 1-(4-(((6-(3-(2-(4-((6-Acetyl-2,6-diazaspiro[3.3]heptan-2-yl)methyl)-3-methoxyphenyl)-3-chloropyridin-4-yl)-2-chlorophenyl)-1-methyl-1H-pyrrolo[2,3-b]pyridin-3-yl)methyl)(methyl)amino)piperidin-1-yl)ethan-1-one] | 110 | 0.23 |
| COc1cc(-c2nccc(-c3cccc(-c4ccc5c(CN(C)C6CCN(C(C)=O)CC6)cn(C)c5n4)c3Cl)c2Cl)ccc1CN1CC2(CNC(=O)C2)C1 [Compound 603, 2-(4-(4-(3-(3-(((1-Acetylpiperidin-4-yl)(methyl)amino)methyl)-1-methyl-1H-pyrrolo[2,3-b]pyridin-6-yl)-2-chlorophenyl)-3-chloropyridin-2-yl)-2-methoxybenzyl)-2,6-diazaspiro[3.4]octan-7-one] | 49.7 | 0.52 |
| COc1cc(-c2nccc(-c3cccc(-c4ccc5c(CNC6CCOCC6)cn(C)c5n4)c3Cl)c2Cl)ccc1CN1CC2(CNC(=O)C2)C1 [Compound 605, 2-(4-(3-Chloro-4-(2-chloro-3-(1-methyl-3-(((tetrahydro-2H-pyran-4-yl)amino)methyl)-1H-pyrrolo[2,3-b]pyridin-6-yl)phenyl)pyridin-2-yl)-2-methoxybenzyl)-2,6-diazaspiro[3.4]octan-7-one] | 636 | 0.34 |
| COc1cc(-c2nccc(-c3cccc(-c4ccc5c(CNC6CCOCC6)cn(C)c5n4)c3Cl)c2Cl)ccc1CNCCO [Compound 606, 2-((4-(3-Chloro-4-(2-chloro-3-(1-methyl-3-(((tetrahydro-2H-pyran-4-yl)amino)methyl)-1H-pyrrolo[2,3-b]pyridin-6-yl)phenyl)pyridin-2-yl)-2-methoxybenzyl)amino)ethan-1-ol] | 237 | 0.12 |
| COc1cc(-c2nccc(-c3cccc(-c4ccc5c(CNC6CCOCC6)cn(C)c5n4)c3Cl)c2Cl)ccc1CN1CC2(C1)CN(C(C)=O)C2 [Compound 609, 1-(6-(4-(3-Chloro-4-(2-chloro-3-(1-methyl-3-(((tetrahydro-2H-pyran-4-yl)amino)methyl)-1H-pyrrolo[2,3-b]pyridin-6-yl)phenyl)pyridin-2-yl)-2-methoxybenzyl)-2,6-diazaspiro[3.3]heptan-2-yl)ethan-1-one] | 10000 | 0.22 |
| COc1cc(-c2ccnc(-c3cccc(-c4ccc(CNC5CCN(C(C)=O)CC5)c(OC)n4)c3Cl)c2Cl)ccc1CNC1CCN(C(C)=O)CC1 [Compound 621, 1-(4-(((6-(3-(4-(4-(((1-Acetylpiperidin-4-yl)amino)methyl)-3-methoxyphenyl)-3-chloropyridin-2-yl)-2-chlorophenyl)-2-methoxypyridin-3-yl)methyl)amino)piperidin-1-yl)ethan-1-one] | 303 | 1.54 |
| COc1nc(-c2cccc(-c3ccnc(-c4ccc(CNC5CCN(C(C)=O)CC5)c(OC)n4)c3Cl)c2Cl)ccc1CNC1CCN(C(C)=O)CC1 [Compound 627, 1-(4-(((6-(3-(5′-(((1-Acetylpiperidin-4-yl)amino)methyl)-3-chloro-6′-methoxy-[2,2′-bipyridin]-4-yl)-2-chlorophenyl)-2-methoxypyridin-3-yl)methyl)amino)piperidin-1-yl)ethan-1-one] | 43.4 | 1.96 |
| COc1nc(-c2cccc(-c3ccnc(-c4ccc(CN5CC6(CNC(=O)C6)C5)c(OC)n4)c3Cl)c2Cl)ccc1CN1CC2(CNC(=O)C2)C1 [Compound 628, 2-((3′-Chloro-4′-(2-chloro-3-(6-methoxy-5-((7-oxo-2,6-diazaspiro[3.4]octan-2-yl)methyl)pyridin-2-yl)phenyl)-6-methoxy-[2,2′-bipyridin]-5-yl)methyl)-2,6-diazaspiro[3.4]octan-7-one] | 27.1 | 0.28 |
| COc1nc(-c2cccc(-c3ccnc(-c4ccc(CNC5CCOCC5)c(OC)n4)c3Cl)c2Cl)ccc1CNC1CCOCC1 [Compound 629, N-((6-(2-Chloro-3-(3-chloro-6′-methoxy-5′-(((tetrahydro-2H-pyran-4-yl)amino)methyl)-[2,2′-bipyridin]-4-yl)phenyl)-2-methoxypyridin-3-yl)methyl)tetrahydro-2H-pyran-4-amine] | 114 | 0.66 |
| COc1nc(-c2cccc(-c3ccnc(-c4ccc(CNC[C@@H]5CCC(=O)N5)c(OC)n4)c3Cl)c2Cl)ccc1CNC[C@@H]1CCC(=O)N1 [Compound 630, (S)-5-((((6-(2-Chloro-3-(3-chloro-6′-methoxy-5′-(((((S)-5-oxopyrrolidin-2-yl)methyl)amino)methyl)-[2,2′-bipyridin]-4-yl)phenyl)-2-methoxypyridin-3-yl)methyl)amino)methyl)pyrrolidin-2-one] | 49.6 | 0.17 |
| COc1cc(-c2nccc(-c3cccc(-c4ccc5c(CN(C)C6CCOCC6)cn(C)c5n4)c3Cl)c2Cl)ccc1CNC1CCOCC1 [Compound 635, N-((6-(2-Chloro-3-(3-chloro-2-(3-methoxy-4-(((tetrahydro-2H-pyran-4-yl)amino)methyl)phenyl)pyridin-4-yl)phenyl)-1-methyl-1H-pyrrolo[2,3-b]pyridin-3-yl)methyl)-N-methyltetrahydro-2H-pyran-4-amine] | 237 | 0.19 |
| COc1nc(-c2cccc(-c3cncc(-c4ccc(CNC5CCN(C(C)=O)CC5)c(OC)n4)c3Cl)c2Cl)ccc1CNC1CCN(C(C)=O)CC1 [Compound 639, 1-(4-(((6-(3-(5-(((1-acetylpiperidin-4-yl)amino)methyl)-4′-chloro-6-methoxy-[2,3′-bipyridin]-5′-yl)-2-chlorophenyl)-2-methoxypyridin-3-yl)methyl)amino)piperidin-1-yl)ethan-1-one] | 23 | 0.19 |
| COc1nc(-c2cccc(-c3cncc(-c4ccc(CN5CC6(CNC(=O)C6)C5)c(OC)n4)c3Cl)c2Cl)ccc1CN1CC2(CNC(=O)C2)C1 [Compound 640, 2-((4′-Chloro-5′-(2-chloro-3-(6-methoxy-5-((7-oxo-2,6-diazaspiro[3.4]octan-2-yl)methyl)pyridin-2-yl)phenyl)-6-methoxy-[2,3′-bipyridin]-5-yl)methyl)-2,6-diazaspiro[3.4]octan-7-one] | 26.2 | 0.22 |
| COc1cc(-c2cncc(-c3cccc(-c4ccc(CNC5CCN(C(C)=O)CC5)c(OC)n4)c3Cl)c2Cl)ccc1CNC1CCN(C(C)=O)CC1 [Compound 641, 1-(4-(((6-(3-(5-(4-(((1-Acetylpiperidin-4-yl)amino)methyl)-3-methoxyphenyl)-4-chloropyridin-3-yl)-2-chlorophenyl)-2-methoxypyridin-3-yl)methyl)amino)piperidin-1-yl)ethan-1-one] | 107 | 0.09 |
| COc1cc(-c2cncc(-c3cccc(-c4ccc(CN5CC6(CNC(=O)C6)C5)c(OC)n4)c3Cl)c2Cl)ccc1CN1CC2(CNC(=O)C2)C1 [Compound 642, 2-(4-(4-Chloro-5-(2-chloro-3-(6-methoxy-5-((7-oxo-2,6-diazaspiro[3.4]octan-2-yl)methyl)pyridin-2-yl)phenyl)pyridin-3-yl)-2-methoxybenzyl)-2,6-diazaspiro[3.4]octan-7-one] | 181 | 0.19 |
| COc1nc(-c2cccc(-c3nccc(-c4ccc(CN5CC6(CNC(=O)C6)C5)c(OC)n4)c3Cl)c2Cl)ccc1CNC1CCN(C(C)=O)CC1 [Compound 680, 2-((2′-(3-(5-(((1-Acetylpiperidin-4-yl)amino)methyl)-6-methoxypyridin-2-yl)-2-chlorophenyl)-3′-chloro-6-methoxy-[2,4′-bipyridin]-5-yl)methyl)-2,6-diazaspiro[3.4]octan-7-one] | 26.3 | 0.03 |
| COc1nc(-c2cccc(-c3nccc(-c4ccc(CN5CC6(CNC(=O)C6)C5)c(OC)n4)c3Cl)c2Cl)ccc1CN1CCC(O)CC1 [Compound 681, 2-((3′-Chloro-2′-(2-chloro-3-(5-((4-hydroxypiperidin-1-yl)methyl)-6-methoxypyridin-2-yl)phenyl)-6-methoxy-[2,4′-bipyridin]-5-yl)methyl)-2,6-diazaspiro[3.4]octan-7-one] | 23.4 | 1.07 |
| COc1nc(-c2cccc(-c3nccc(-c4ccc(CNC5CCN(C(C)=O)CC5)c(OC)n4)c3Cl)c2Cl)ccc1CN1CC2(CNC(=O)C2)C1 [Compound 682, 2-((6-(3-(5-(((1-Acetylpiperidin-4-yl)amino)methyl)-3′-chloro-6-methoxy-[2,4′-bipyridin]-2′-yl)-2-chlorophenyl)-2-methoxypyridin-3-yl)methyl)-2,6-diazaspiro[3.4]octan-7-one] | 24.6 | 0.17 |
| COc1cc(-c2ncnc(-c3cccc(NC(=O)c4cn(C)c(=O)n(C)c4=O)c3Cl)c2Cl)ccc1CNC[C@@H]1CCC(=O)N1 [Compound 708, (S)—N-(2-Chloro-3-(5-chloro-6-(3-methoxy-4-((((5-oxopyrrolidin-2-yl)methyl)amino)methyl)phenyl)pyrimidin-4-yl)phenyl)-1,3-dimethyl-2,4-dioxo-1,2,3,4-tetrahydropyrimidine-5-carboxamide] | 1320 | 0.29 |

— patent publication US20240246964A1 (Arbutus Biopharma Corporation, priority 2021, published 2024)
